Where two headings read alike, the source gives them in different places.
Tests used:
Experiment in all cases: Kinase panel
Format in all cases: biochemical
[1] = target: ALK2/ACVR1 (Homo sapiens, UniProt Q04771); conditions: ALK2/ACVR1, 1 µM; read-out: residual enzyme activity
How it was run: (§1)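 Full kinase panel, biochemical readout. A single 1 µM compound concentration was tested, and residual activity was derived; kinases whose activity dropped to 40% or less were recorded.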

[2] = target: CDK2/CYCLIN O (Homo sapiens, UniProt P24941); conditions: read-out: residual enzyme activity
How it was run: as §1

[3] = target: MNK1 (Homo sapiens, UniProt Q9BUB5); conditions: MNK1, 1 µM; read-out: residual enzyme activity
How it was run: as §1

[4] = target: JAK2 (Homo sapiens, UniProt O60674); conditions: JAK2, 1 µM; read-out: residual enzyme activity
How it was run: as §1

[5] = target: CDC7/DBF4 (Homo sapiens, UniProt O00311); conditions: CDC7/DBF4, 1 µM; read-out: residual enzyme activity
How it was run: as §1

[6] = target: JNK2 (Homo sapiens, UniProt P45984); conditions: read-out: residual enzyme activity
How it was run: as §1

[7] = target: MYLK3 (Homo sapiens, UniProt Q32MK0); conditions: MYLK3, 1 µM; read-out: residual enzyme activity
How it was run: as §1

[8] = target: FMS (Homo sapiens, UniProt P07333); conditions: read-out: residual enzyme activity
How it was run: as §1

[9] = target: CDK7/CYCLIN H (Homo sapiens, UniProt P50613); conditions: read-out: residual enzyme activity
How it was run: as §1

[10] = target: MINK/MINK1 (Homo sapiens, UniProt Q8N4C8); conditions: MINK/MINK1, 1 µM; read-out: residual enzyme activity
How it was run: as §1

[11] = target: EPHB3 (Homo sapiens, UniProt P54753); conditions: EPHB3, 1 µM; read-out: residual enzyme activity
How it was run: as §1

[12] = target: PKG1A (Homo sapiens, UniProt Q13976); conditions: read-out: residual enzyme activity
How it was run: as §1

[13] = target: AURORA C (Homo sapiens, UniProt Q9UQB9); conditions: read-out: residual enzyme activity
How it was run: as §1

[14] = target: STK38L/NDR2 (Homo sapiens, UniProt Q9Y2H1); conditions: STK38L/NDR2, 1 µM; read-out: residual enzyme activity
How it was run: as §1

[15] = target: ULK3 (Homo sapiens, UniProt Q6PHR2); conditions: ULK3, 1 µM; read-out: residual enzyme activity
How it was run: as §1

[16] = target: PHKG2 (Homo sapiens, UniProt P15735); conditions: PHKg2, 1 µM; read-out: residual enzyme activity
How it was run: as §1

[17] = target: BRAF (Homo sapiens, UniProt P15056); conditions: read-out: residual enzyme activity
How it was run: as §1

[18] = target: VRK2 (Homo sapiens, UniProt Q86Y07); conditions: VRK2, 1 µM; read-out: residual enzyme activity
How it was run: as §1

[19] = target: MSK1/RPS6KA5 (Homo sapiens, UniProt O75582); conditions: MSK1/RPS6KA5, 1 µM; read-out: residual enzyme activity
Sequence of MSK1/RPS6KA5 (O75582 whole entry): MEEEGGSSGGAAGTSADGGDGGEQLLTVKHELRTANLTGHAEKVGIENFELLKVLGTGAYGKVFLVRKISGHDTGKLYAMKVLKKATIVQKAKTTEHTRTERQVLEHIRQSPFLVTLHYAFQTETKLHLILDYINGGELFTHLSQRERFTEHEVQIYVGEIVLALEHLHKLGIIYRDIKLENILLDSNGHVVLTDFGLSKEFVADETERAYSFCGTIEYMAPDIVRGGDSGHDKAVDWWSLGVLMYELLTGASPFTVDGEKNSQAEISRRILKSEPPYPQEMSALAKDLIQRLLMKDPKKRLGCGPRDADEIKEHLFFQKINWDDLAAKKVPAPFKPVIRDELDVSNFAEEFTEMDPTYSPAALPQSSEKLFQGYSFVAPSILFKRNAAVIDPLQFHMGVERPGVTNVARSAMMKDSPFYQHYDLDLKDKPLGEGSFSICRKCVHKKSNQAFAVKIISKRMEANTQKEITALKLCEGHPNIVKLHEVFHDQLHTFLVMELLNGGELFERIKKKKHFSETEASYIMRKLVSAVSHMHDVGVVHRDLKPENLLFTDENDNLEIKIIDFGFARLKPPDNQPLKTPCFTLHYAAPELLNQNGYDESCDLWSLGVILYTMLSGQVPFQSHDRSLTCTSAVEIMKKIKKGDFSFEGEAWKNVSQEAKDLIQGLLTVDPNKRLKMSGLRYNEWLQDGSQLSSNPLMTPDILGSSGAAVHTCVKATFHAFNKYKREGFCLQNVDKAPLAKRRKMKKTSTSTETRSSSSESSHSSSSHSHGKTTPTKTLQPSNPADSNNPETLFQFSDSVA
How it was run: as §1

[20] = target: MLCK/MYLK (Homo sapiens, UniProt Q15746); conditions: read-out: residual enzyme activity
How it was run: as §1

[21] = target: CAMKK1 (Homo sapiens, UniProt Q8N5S9); conditions: CAMKK1, 1 µM; read-out: residual enzyme activity
How it was run: as §1

[22] = target: CHK2 (Homo sapiens, UniProt O96017); conditions: CHK2, 1 µM; read-out: residual enzyme activity
Sequence of CHK2 (O96017 whole entry, species assumed): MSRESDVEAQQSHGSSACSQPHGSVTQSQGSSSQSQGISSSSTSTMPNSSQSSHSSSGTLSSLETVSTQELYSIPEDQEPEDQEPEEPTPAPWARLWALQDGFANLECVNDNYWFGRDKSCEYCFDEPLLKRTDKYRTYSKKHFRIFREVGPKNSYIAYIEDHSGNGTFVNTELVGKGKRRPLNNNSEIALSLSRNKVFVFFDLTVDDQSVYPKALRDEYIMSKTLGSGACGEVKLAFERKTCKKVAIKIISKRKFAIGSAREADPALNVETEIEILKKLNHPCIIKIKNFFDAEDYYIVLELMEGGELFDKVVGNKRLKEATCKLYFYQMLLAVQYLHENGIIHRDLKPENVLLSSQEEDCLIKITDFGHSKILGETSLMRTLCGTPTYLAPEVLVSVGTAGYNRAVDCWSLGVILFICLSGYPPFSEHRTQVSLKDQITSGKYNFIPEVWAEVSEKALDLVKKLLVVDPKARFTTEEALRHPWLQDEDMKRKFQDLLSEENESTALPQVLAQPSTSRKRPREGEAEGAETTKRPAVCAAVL
How it was run: as §1

[23] = target: ABL2/ARG (Homo sapiens, UniProt P42684); conditions: read-out: residual enzyme activity
How it was run: as §1

[24] = target: STK33 (Homo sapiens, UniProt Q9BYT3); conditions: STK33, 1 µM; read-out: residual enzyme activity
How it was run: as §1

[25] = target: BRSK2 (Homo sapiens, UniProt Q8IWQ3); conditions: BRSK2, 1 µM; read-out: residual enzyme activity
How it was run: as §1

[26] = target: CAMK2G (Homo sapiens, UniProt Q13555); conditions: read-out: residual enzyme activity
Sequence of CAMK2G (Q13555 whole entry, species assumed): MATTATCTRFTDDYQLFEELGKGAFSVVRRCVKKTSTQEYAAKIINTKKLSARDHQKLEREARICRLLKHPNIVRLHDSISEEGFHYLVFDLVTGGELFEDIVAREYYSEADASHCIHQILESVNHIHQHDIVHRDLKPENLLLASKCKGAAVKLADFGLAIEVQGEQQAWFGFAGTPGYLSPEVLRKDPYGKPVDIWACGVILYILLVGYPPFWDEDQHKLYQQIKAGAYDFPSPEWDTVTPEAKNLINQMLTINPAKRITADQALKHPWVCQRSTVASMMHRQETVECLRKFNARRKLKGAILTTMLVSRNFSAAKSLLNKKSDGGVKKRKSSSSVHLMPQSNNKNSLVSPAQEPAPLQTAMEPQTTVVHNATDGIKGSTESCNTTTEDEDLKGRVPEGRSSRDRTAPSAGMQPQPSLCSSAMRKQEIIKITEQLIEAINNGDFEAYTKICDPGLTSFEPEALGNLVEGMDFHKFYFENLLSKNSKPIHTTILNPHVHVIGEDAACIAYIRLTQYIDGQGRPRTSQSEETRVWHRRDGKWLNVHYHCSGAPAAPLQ
How it was run: as §1

[27] = target: DYRK1B (Homo sapiens, UniProt Q9Y463); conditions: read-out: residual enzyme activity
How it was run: as §1

[28] = target: NEK2 (Homo sapiens, UniProt P51955); conditions: NEK2, 1 µM; read-out: residual enzyme activity
How it was run: as §1

[29] = target: CK1G2 (Homo sapiens, UniProt P78368); conditions: read-out: residual enzyme activity
Sequence of CK1G2 (P78368 whole entry, species assumed): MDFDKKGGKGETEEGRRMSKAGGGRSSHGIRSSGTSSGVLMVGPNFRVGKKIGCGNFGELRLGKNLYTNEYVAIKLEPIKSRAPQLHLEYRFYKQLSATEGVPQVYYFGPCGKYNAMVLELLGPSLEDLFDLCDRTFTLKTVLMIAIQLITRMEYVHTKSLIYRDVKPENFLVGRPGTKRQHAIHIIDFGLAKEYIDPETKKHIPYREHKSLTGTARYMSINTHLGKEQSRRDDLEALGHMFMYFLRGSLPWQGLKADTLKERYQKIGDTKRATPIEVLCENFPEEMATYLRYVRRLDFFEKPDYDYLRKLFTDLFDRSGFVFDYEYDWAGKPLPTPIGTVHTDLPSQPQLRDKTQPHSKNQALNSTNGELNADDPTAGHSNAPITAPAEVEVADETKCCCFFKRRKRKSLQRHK
How it was run: as §1

[30] = target: MYO3B (Homo sapiens, UniProt Q8WXR4); conditions: read-out: residual enzyme activity
Sequence of MYO3B (Q8WXR4 whole entry, species assumed): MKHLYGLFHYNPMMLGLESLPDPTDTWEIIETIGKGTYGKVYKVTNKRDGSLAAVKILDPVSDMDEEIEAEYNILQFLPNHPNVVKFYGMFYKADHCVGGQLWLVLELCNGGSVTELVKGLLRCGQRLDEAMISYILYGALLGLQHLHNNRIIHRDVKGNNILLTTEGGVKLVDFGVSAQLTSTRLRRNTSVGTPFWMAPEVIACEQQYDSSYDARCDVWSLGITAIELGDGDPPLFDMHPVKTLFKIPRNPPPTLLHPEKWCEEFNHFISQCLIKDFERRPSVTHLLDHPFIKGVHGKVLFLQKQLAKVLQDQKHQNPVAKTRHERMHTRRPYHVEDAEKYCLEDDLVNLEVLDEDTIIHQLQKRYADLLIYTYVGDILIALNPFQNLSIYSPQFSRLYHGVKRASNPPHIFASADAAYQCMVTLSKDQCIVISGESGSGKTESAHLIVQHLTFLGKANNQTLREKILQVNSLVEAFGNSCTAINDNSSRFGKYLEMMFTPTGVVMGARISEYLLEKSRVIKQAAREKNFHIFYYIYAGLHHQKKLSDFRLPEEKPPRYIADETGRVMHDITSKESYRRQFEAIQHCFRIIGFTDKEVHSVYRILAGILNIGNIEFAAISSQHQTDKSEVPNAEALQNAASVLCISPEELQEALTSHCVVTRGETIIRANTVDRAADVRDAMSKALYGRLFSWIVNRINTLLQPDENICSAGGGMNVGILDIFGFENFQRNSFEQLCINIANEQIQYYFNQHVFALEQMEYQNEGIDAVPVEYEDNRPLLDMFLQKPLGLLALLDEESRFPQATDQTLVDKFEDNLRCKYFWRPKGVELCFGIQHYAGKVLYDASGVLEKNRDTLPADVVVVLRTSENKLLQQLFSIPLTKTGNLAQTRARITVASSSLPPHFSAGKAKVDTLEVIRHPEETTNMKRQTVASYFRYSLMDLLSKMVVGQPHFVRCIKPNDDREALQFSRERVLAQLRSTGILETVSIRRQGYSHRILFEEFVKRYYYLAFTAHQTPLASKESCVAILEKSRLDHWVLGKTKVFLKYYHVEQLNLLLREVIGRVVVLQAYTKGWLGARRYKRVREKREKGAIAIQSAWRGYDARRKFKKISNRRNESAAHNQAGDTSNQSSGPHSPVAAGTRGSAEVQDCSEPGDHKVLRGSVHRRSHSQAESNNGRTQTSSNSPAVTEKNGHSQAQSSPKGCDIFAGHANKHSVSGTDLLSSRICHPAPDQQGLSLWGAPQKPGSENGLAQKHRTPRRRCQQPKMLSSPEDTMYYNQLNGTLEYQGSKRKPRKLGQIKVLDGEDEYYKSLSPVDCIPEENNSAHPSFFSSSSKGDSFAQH
How it was run: as §1

[31] = target: ERN2/IRE2 (Homo sapiens, UniProt Q76MJ5); conditions: ERN2/IRE2, 1 µM; read-out: residual enzyme activity
How it was run: as §1

[32] = target: SGK3/SGKL (Homo sapiens, UniProt Q96BR1); conditions: read-out: residual enzyme activity
Sequence of SGK3/SGKL (Q96BR1 whole entry): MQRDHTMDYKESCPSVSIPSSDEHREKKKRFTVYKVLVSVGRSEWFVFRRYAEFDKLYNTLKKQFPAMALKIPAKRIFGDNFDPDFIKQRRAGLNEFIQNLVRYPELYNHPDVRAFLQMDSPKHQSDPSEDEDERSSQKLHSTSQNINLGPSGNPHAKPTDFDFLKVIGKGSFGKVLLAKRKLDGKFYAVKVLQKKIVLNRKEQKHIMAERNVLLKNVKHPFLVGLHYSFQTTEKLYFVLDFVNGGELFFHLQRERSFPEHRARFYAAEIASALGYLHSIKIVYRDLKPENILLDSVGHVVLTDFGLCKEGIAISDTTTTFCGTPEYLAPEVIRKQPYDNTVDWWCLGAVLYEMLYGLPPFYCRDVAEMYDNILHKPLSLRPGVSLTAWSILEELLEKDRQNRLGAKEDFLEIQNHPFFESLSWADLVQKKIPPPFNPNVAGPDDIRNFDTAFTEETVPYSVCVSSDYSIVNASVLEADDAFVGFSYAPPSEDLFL
How it was run: as §1

[33] = target: DYRK1/DYRK1A (Homo sapiens, UniProt Q13627); conditions: read-out: residual enzyme activity
How it was run: as §1

[34] = target: TAK1 (Homo sapiens, UniProt O43318); conditions: TAK1, 1 µM; read-out: residual enzyme activity
Sequence of TAK1 (O43318 1-303 limits assumed): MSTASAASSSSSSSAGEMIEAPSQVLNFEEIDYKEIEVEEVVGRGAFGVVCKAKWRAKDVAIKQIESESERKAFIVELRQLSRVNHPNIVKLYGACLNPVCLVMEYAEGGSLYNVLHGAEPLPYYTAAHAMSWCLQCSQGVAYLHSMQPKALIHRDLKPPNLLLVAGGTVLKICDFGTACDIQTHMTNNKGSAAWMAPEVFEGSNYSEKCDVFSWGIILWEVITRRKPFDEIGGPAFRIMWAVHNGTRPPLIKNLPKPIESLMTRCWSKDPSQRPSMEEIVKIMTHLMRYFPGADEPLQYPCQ
How it was run: as §1

Sequence of ALK2/ACVR1 (Q04771 21-509): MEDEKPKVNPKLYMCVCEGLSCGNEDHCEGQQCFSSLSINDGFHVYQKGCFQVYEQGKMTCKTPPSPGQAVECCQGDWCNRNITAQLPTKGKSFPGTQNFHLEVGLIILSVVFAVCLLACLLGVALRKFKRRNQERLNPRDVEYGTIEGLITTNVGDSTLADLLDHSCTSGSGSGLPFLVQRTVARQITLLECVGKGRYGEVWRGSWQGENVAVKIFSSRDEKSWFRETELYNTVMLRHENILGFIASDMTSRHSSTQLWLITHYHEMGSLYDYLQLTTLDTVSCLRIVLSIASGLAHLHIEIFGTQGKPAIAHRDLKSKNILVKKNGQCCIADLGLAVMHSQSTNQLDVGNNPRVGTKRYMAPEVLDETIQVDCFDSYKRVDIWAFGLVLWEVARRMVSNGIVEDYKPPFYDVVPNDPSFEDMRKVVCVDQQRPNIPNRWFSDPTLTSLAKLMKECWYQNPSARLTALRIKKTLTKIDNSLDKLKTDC

## Cc1cn(-c2cc(C(=O)Nc3ccc(C)c(N4Cc5cnc(NC6CC6)nc5C5(CC5)C4=O)c3)cc(C(F)(F)F)c2)cn1 [Compound 8, N-(3-(2'-(cyclopropylamino)-7'-oxo-5'H-spiro[cyclopropane-1,8'-pyrido[4,3-d]pyrimidine]-6'(7'H)-yl)-4-methylphenyl)-3-(4-methyl-1H-imidazol-1-yl)-5-(trifluoromethyl)benzamide]
[1]
  remaining activity at 1 µM: > 40%
[2]
  remaining activity at 1 µM: > 40%
[3]
  remaining activity at 1 µM: > 40%
[4]
  remaining activity at 1 µM: ≤ 40%
[5]
  remaining activity at 1 µM: > 40%
[6]; JNK2, 1 µM
  remaining activity at 1 µM: > 40%
[7]
  remaining activity at 1 µM: > 40%
[8]
  remaining activity at 1 µM: ≤ 40%
[9]
  remaining activity at 1 µM: > 40%
[10]
  remaining activity at 1 µM: ≤ 40%
[11]
  remaining activity at 1 µM: ≤ 40%
[12]; PKG1A
  remaining activity at 1 µM: > 40%
[13]
  remaining activity at 1 µM: > 40%
[14]
  remaining activity at 1 µM: > 40%
[15]
  remaining activity at 1 µM: > 40%
[16]
  remaining activity at 1 µM: > 40%
[17]
  remaining activity at 1 µM: ≤ 40%
[18]
  remaining activity at 1 µM: > 40%
[19]
  remaining activity at 1 µM: > 40%
[20]
  remaining activity at 1 µM: > 40%
[21]
  remaining activity at 1 µM: > 40%
[22]
  remaining activity at 1 µM: > 40%
[23]
  remaining activity at 1 µM: ≤ 40%
[24]
  remaining activity at 1 µM: > 40%
[25]
  remaining activity at 1 µM: > 40%
[26]; CAMK2G
  remaining activity at 1 µM: > 40%
[27]
  remaining activity at 1 µM: > 40%
[28]
  remaining activity at 1 µM: > 40%
[29]; CK1G2, 1 µM
  remaining activity at 1 µM: > 40%
[30]; MYO3B
  remaining activity at 1 µM: > 40%
[31]
  remaining activity at 1 µM: > 40%
[32]
  remaining activity at 1 µM: > 40%
[33]
  remaining activity at 1 µM: > 40%
[34]
  remaining activity at 1 µM: ≤ 40%

## Cc1ccc(Nc2ncc3c(n2)C2(CC2)C(=O)N(c2cc(NC(=O)c4cccc(C(F)(F)F)c4)ccc2C)C3)cn1 [Compound 51, N-(4-methyl-3-(2'-((6-methylpyridin-3-yl)amino)-7'-oxo-5'H-spiro[cyclopropane-1,8'-pyrido[4,3-d]pyrimidine]-6'(7'H)-yl)phenyl)-3-(trifluoromethyl)benzamide]
[1]
  remaining activity at 1 µM: > 40%
[2]
  remaining activity at 1 µM: > 40%
[3]
  remaining activity at 1 µM: > 40%
[4]
  remaining activity at 1 µM: ≤ 40%
[5]
  remaining activity at 1 µM: > 40%
[6]; INK2, 1 µM
  remaining activity at 1 µM: ≤ 40%
[7]
  remaining activity at 1 µM: > 40%
[8]
  remaining activity at 1 µM: ≤ 40%
[9]
  remaining activity at 1 µM: > 40%
[10]
  remaining activity at 1 µM: ≤ 40%
[11]
  remaining activity at 1 µM: ≤ 40%
[12]; PKGla
  remaining activity at 1 µM: > 40%
[13]
  remaining activity at 1 µM: > 40%
[14]
  remaining activity at 1 µM: > 40%
[15]
  remaining activity at 1 µM: > 40%
[16]
  remaining activity at 1 µM: > 40%
[17]
  remaining activity at 1 µM: ≤ 40%
[18]
  remaining activity at 1 µM: > 40%
[19]
  remaining activity at 1 µM: > 40%
[20]
  remaining activity at 1 µM: > 40%
[21]
  remaining activity at 1 µM: > 40%
[22]
  remaining activity at 1 µM: > 40%
[23]
  remaining activity at 1 µM: ≤ 40%
[24]
  remaining activity at 1 µM: > 40%
[25]
  remaining activity at 1 µM: > 40%
[26]; CAMK2g
  remaining activity at 1 µM: > 40%
[27]
  remaining activity at 1 µM: > 40%
[28]
  remaining activity at 1 µM: > 40%
[29]; CKlg2, 1 µM
  remaining activity at 1 µM: > 40%
[30]; MYO3b
  remaining activity at 1 µM: > 40%
[31]
  remaining activity at 1 µM: > 40%
[32]
  remaining activity at 1 µM: > 40%
[33]
  remaining activity at 1 µM: > 40%
[34]
  remaining activity at 1 µM: ≤ 40%
